biological target: T1, PAF specific receptor binding site on human platelet membranes (Homo sapiens, UniProt P25105); test: inhibition of the binding of [3H] N-methylcarbamoyl-PAF to human platelet membranes; conditions: trans configuration, read-out: % inhibitor* (% inhibition of the binding of [3H] N-methylcarbamoyl-PAF to human platelet membranes)
T1 construct: 100 μg of the platelet plasma membrane suspension; from tissue; host or cells: human platelets (plasma membranes)
Procedure: The ability of a compound of formula (I) to inhibit the PAF binding to its specific receptor binding site on rabbit or human platelet or PMN plasma membranes was measured by a recently developed assay.
The inhibition of ^3 [H] PAF or ^3 [H]N-methylcarbamoyl-PAF binding to the human or rabbit platelet or PMN plasma membrane by a PAF antagonist of formula (I) was determined by a method employing isotopic labeling and filtration techniques. Generally, a series of Tris-buffered solutions of the selected antagonist at predetermined concentrations were prepared. […] Two control samples, one of which (C1) contains all the ingredients described above except the antagonist and the other (C2) contains C1 plus a 1000-fold excess of unlabeled PAF, were also prepared and incubated simultaneously with the test samples. After the incubation was completed, the contents of each test tube were filtered in vacuo through a Whatman GF/C fiberglass filter and the residue washed rapidly several times with a total of 20 ml cold (0°-5° C.) Tris-buffer solution. Each washed residue was then suspended in 10 ml scintillation solution (Aquasol 2, New England Nuclear, Connecticut) and the radioactivity was counted in a Packard Tri-Carb 460CD Liguid Scintillation System.

T1 sequence (P25105 whole entry): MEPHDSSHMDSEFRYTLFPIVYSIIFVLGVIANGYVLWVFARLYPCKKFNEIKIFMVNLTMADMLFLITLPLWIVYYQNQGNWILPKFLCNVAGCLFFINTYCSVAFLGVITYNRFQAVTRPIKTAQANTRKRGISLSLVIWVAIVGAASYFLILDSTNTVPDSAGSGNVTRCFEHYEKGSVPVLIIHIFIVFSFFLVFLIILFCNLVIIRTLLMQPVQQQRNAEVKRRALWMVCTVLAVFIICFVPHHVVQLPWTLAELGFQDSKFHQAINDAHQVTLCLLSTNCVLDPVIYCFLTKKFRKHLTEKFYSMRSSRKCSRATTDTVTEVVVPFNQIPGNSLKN

| inhibition [%] | SMILES |
| --- | --- |
| 33 | CCCOc1c(OCC(C)=O)cc([C@H]2CC[C@H](c3cc(OC)c(OC)c(OC)c3)O2)cc1S(=O)(=O)CCO (relative stereo) [SO2 CH2 CH2OH / CH2 CH2 CH3 / CH2 COCH3, trans-2-[3-(2-Hydroxyethylsulfonyl)-4-n-propoxy-5-(2-oxo-propoxy)phenyl]-5-(3,4,5-trimethoxy-phenyl)tetrahydrofuran] |
| 65 | CCCOc1c(OCC(C)=O)cc([C@H]2CC[C@H](c3cc(OC)c(OC)c(OC)c3)O2)cc1S(=O)(=O)CC(C)=O (relative stereo) [SO2 CH2 COCH3 / CH2 CH2 CH3 / CH2 COCH3, trans-2-[3-(2-Oxopropyl-sulfonyl)-4-n-propoxy-5-(2-oxopropoxy)phenyl]-5-(3,4,5-trimethoxyphenyl)tetrahydrofuran] |
| 27 | CCCOc1cc([C@H]2CC[C@H](c3cc(OC)c(OC)c(OC)c3)O2)cc(S(=O)(=O)CCN)c1OCCC (relative stereo) [trans-2-[3-(2-Aminoethylsulfonyl)-4,5-dipropoxyphenyl]-5-(3,4,5-trimethoxyphenyl)tetrahydrofuran] |
| 46 | CCCOc1c(OCCCO)cc([C@@H]2CC[C@@H](c3cc(OC)c(OC)c(OC)c3)O2)cc1S(=O)(=O)CCN(C)C (relative stereo) [trans-2-[3-(2-N,N-Dimethylaminoethylsulfonyl)-4-n-propoxy-5-(3-hydroxypropoxy)phenyl]-5-(3,4,5-trimethoxyphenyl)tetrahydrofuran] |
| 52 | CCCOc1c(OCC(C)=O)cc([C@H]2CC[C@H](c3cc(OC)c(OC)c(OC)c3)O2)cc1S(=O)(=O)CC(C)O (relative stereo) [trans-2-[3-(2-hydroxypropylsulfonyl)-4-n-propoxy-5-(2-oxopropoxy)phenyl]-5-(3,4,5-trimethoxy-phenyl)tetrahydrofuran] |
| 58 | CCCOc1cc([C@@H]2CC[C@@H](c3cc(OC)c(OC)c(OC)c3)O2)cc(S(=O)(=O)CCN(C)C)c1OCCC (relative stereo) [trans-2-[3-(2-N,N-Dimethylaminoethylsulfonyl)-4,5-di-n-propoxyphenyl]-5-(3,4,5-trimethoxyphenyl)tetrayhydrofuran] |
| 14 | CCCOc1c(OCC(C)O)cc([C@@H]2CC[C@@H](c3cc(OC)c(OC)c(OC)c3)O2)cc1S(=O)(=O)CCN(C)C (relative stereo) [trans-2-[3-(2-N,N-Dimethylaminoethylsulfonyl)-4-n-propoxy-5-(2-hydroxypropoxy)phenyl]-5-(3,4,5-trimethoxyphenyl)tetrahydrofuran] |
| 58 | CCCOc1cc([C@@H]2CC[C@@H](c3cc(OC)c(OC)c(OC)c3)O2)cc(S(=O)(=O)CCNC)c1OCCC (relative stereo) [trans-2-[3-(2-N-Methylaminoethylsulfonyl)-4,5-di-n-propoxyphenyl]-5-(3,4,5-trimethoxyphenyl) tetrahydrofuran] |
| 23 | CCCOc1c(OCCCO)cc([C@@H]2CC[C@@H](c3cc(OC)c(OC)c(OC)c3)O2)cc1S(=O)(=O)CC(C)N(C)C (relative stereo) [trans-2-[3-(2-N,N-dimethylaminopropyl-sulfonyl)-4-n-propoxy-5-(3-hydroxypropoxy)phenyl]5-(3,4,5-trimethoxyphenyl)tetrahydrofuran] |
| 17 | CCCOc1c(OCCCN(C)C)cc([C@@H]2CC[C@@H](c3cc(OC)c(OC)c(OC)c3)O2)cc1S(=O)(=O)CC(C)=O (relative stereo) [2-[3-(2-Oxopropylsulfonyl)4-n-propoxy-5-{3-(N,N-dimethylamino)-n-propoxy}phenyl]-5-(3,4,5-trimethoxyphenyl)tetrahydrofuran] |
| 26 | CCCOc1c(OCCCO)cc([C@H]2CC[C@H](c3cc(OC)c(OC)c(OC)c3)O2)cc1S(=O)(=O)CC(C)O (relative stereo) [trans-2-[3-(2-hydroxypropylsulfonyl)-4-n-propoxy-5-(3-hydroxypropoxy)phenyl]-5-(3,4,5-trimethoxyphenyl)tetrahydrofuran] |
| 18 | CCCOc1c(OCCCO)cc([C@H]2CC[C@H](c3cc(OC)c(OC)c(OC)c3)O2)cc1S(=O)(=O)CC(C)N (relative stereo) [trans-2-[3-(2-Aminopropylsulfonyl)-4-n-propoxy-5-(3-hydroxypropoxy)phenyl]5-(3,4,5-trimethoxyphenyl)tetrahydrofuran] |
| 38 | CCCOc1c(OCCCO)cc([C@@H]2CC[C@@H](c3cc(OC)c(OC)c(OC)c3)O2)cc1S(=O)(=O)CC(C)NC (relative stereo) [trans-2-[3-(2-N-Methylaminopropylsulfonyl)-4-n-propoxy-5-(3-hydroxypropoxy)phenyl]-5-(3,4,5-trimethoxyphenyl)tetrahydrofuran] |
| 36 | CCCOc1c(OCCCO)cc([C@@H]2CC[C@@H](c3cc(OC)c(OC)c(OC)c3)O2)cc1S(=O)(=O)CC(C)NCC (relative stereo) [trans-2-[3-(2-N-Ethylaminopropylsulfonyl)-4-propoxy-5-(3-hydroxypropoxy)phenyl]-5-(3,4,5-trimethoxyphenyl)tetrahydrofuran] |
| 42 | CCCOc1cc([C@@H]2CC[C@@H](c3cc(OC)c(OC)c(OC)c3)O2)cc(S(=O)(=O)CCNCC)c1OCCC (relative stereo) [trans-2-[3-(2-N-Ethylaminoethylsulfonyl)-4,5-dipropoxyphenyl]-5-(3,4,5-trimethoxyphenyl)tetrahydrofuran] |
| 33 | CCCNCCS(=O)(=O)c1cc([C@@H]2CC[C@@H](c3cc(OC)c(OC)c(OC)c3)O2)cc(OCCC)c1OCCC (relative stereo) [trans-2-[3-(2-N-Propylaminoethylsulfonyl)-4,5-dipropoxyphenyl]-5-(3,4,5-trimethoxyphenyl) tetrahydrofuran] |
| 31 | CCCOc1c(OCC(C)=O)cc([C@@H]2CC[C@@H](c3cc(OC)c(OC)c(OC)c3)O2)cc1S(=O)(=O)CCN(C)C (relative stereo) [trans-2-[3-(2-N,N-Dimethylaminoethyl-sulfonyl)-4-n-propoxy-5-(2-oxo-propoxyphenyl]-5-(3,4,5-trimethoxyphenyl)tetrahydrofuran] |
